Data from patent publication US20190169597A1, “GENOME EDITING ENHANCERS” (bluebird bio, Inc., priority 2016, published 2019).
Entries after “also recorded” stand apart in the source; their conditions may differ. Where a name gives a salt, the structure may show the parent alone.

What was measured:
[1] = test system: TCRα gene in primary human T cells; test: Small molecule screen: megaTAL-mediated disruption of the TCRα gene detected by loss of CD3 cell surface staining; assay type: cell-based; settings: 10 μM, 24 hours at 37° C., then three more days; proportion of CD4/CD8+ cells negative for CD3
Method: A small molecule screen (FIG. 1) was performed to identify candidate soluble factors which could modulate the efficiency of genomic editing at the TCR locus in primary human T cells.

[2] = test system: TCRα gene in primary T cells; test: Dose response of megaTAL-Trex2 TCRα gene disruption (NHEJ editing efficiency) in primary T cells; assay type: cell-based, human; settings: 24 hours at 30° C. or 37° C.
Method: (§1) T cells were purified, activated and electroporated with mRNA encoding TCRα-targeting megaTAL-Trex2 fusion as described in Example 1. Electroporated cells were cultured for 24 hours at either 30° C. or 37° C. with Tilorone, Aminacrine, Homidium Bromide (Ethidium Bromide) and Harmine. Cells were then washed to remove residual compound and cultured for an additional three days. After the three days of culture, the cells were stained with CD4, CD8 and CD3 and analyzed by flow cytometery as described in Example 1.

[3] = test system: BCL11A erythroid enhancer locus in primary human CD34+ cells; test: HDR of AAV BFP template at the BCL11A erythroid enhancer with BCL11A megaTAL in CD34+ cells; assay type: cell-based; settings: aminacrine 0.3 μM, 1.0 μM, 3.0 μM for 24 hours
Method: Adeno-associated virus (AAV) plasmids containing a promoter, a GFP or BFP reporter transgene and a polyadenylation signal were designed, constructed, and verified. The transgene was flanked by either 1.3 kb and 1.0 kb homology arms to the BCL11A erythroid enhancer locus at DHS58 (Bauer et al., Science. 342(6155): 253-7 (2013)). rAAV is generated by transient transfection of HEK293T cells, as described in Example 3.
(§2) Primary human peripheral blood-derived CD34+ cells were cultured in cytokine-supplemented media for 72 hours. Cells were washed and electroporated with either an mRNA encoding a megaTAL specific for the human BCL11A erythroid enhancer region or a megaTAL targeting the human CCR5 locus. Cells were then incubated with AAV vector with or without aminacrine at concentrations of 0 μM, 0.3 μM, 1.0 μM, and 3.0 μM for 24 hours, washed and cultured in cytokine-supplemented media. HDR was analyzed at regular timepoints by flow cytometry to determine BFP fluorescence.

[4] = test system: TCRα locus in primary human T cells; test: Aminacrine HDR assay: megaTAL-induced HDR of AAV MND-GFP transgene at the TCRα locus; assay type: cell-based; settings: for % GFP positive cells: megaTAL +
From the text: Adeno-associated virus (AAV) plasmids containing transgene cassettes comprising a promoter, a transgene encoding a fluorescent protein, and a polyadenylation signal were designed and constructed. The integrity of AAV ITR elements was confirmed with XmaI digest. The transgene expression cassette was placed between two homology regions within exon 1 of the TCRα gene to enable targeting by homologous recombination (AAV targeting vector) using a TCRα-targeting megaTAL. The 5′ and 3′ homology regions were ˜1500 bp and ˜1000 bp in length, respectively, and neither homology region contained the complete megaTAL target site. The transgene expression cassette contained a myeloproliferative sarcoma virus enhancer, negative control region deleted, d1587rev primer-binding site substituted (MND) promoter operably linked to a polynucleotide encoding a fluorescent polypeptide, e.g., green fluorescent protein (GFP). The expression cassettes also contain the SV40 late polyadenylation signal.
Recombinant AAV-6 (rAAV) was prepared by transiently co-transfecting HEK 293T cells with one or more plasmids providing the replication, capsid, and adenoviral helper elements necessary. rAAV was purified from the co-transfected HEK 293T cell culture using ultracentrifugation in an iodixanol-based gradient.
MegaTAL-induced homology directed repair (HDR) was evaluated in primary human T cells activated with CD3 and CD28 and cultured in complete media supplemented with IL-2. […] Controls included T cells containing megaTAL or rAAV targeting vector alone. Cells were cultured overnight at 30° C. in the presence or absence of two different doses of aminacrine. Five days post electroporation the frequency of GFP+ T cells was measured by flow cytometry.

[5] = test system: CCR5 locus in primary human CD34+ cells; test: Non-target control: CCR5-specific megaTAL combined with BCL11A-targeting AAV template in CD34+ cells; assay type: cell-based; settings: aminacrine 0.3-3.0 μM for 24 hours
Method: as §2

primary human T cells = test: Small molecule screen: cell yield (flow cytometry events in the live gate); settings: 10 μM, 24 hours at 37° C., then three more days; number of flow cytometry events in the live gate
Method: Briefly, purified CD3+ primary human T cells were activated with CD3/CD28 magnetic beads and cultured for 48 hours in IL-2 supplemented complete RPMI media prior to bead removal. After bead removal, T cells were washed and electroporated with in vitro transcribed mRNA encoding a T cell receptor alpha (TCRα) targeting megaTAL-Trex2 fusion mRNA. Cells were then distributed into 384-well format and contacted with a library of ˜2000 known drugs, natural products, and other bioactive components (Microsource Discovery System's Spectrum Collection), with each drug at a final concentration of 10 μM. Cells were cultured with the compounds for 24 hours at 37° C. and then washed and cultured for an additional three days. Cells were then stained for CD3, CD4, and CD8 surface markers, and subjected to high-throughput volumetric flow cytometric analysis.
The number of flow cytometry events in the “live” gate of the FSC/SSC profile was used as a measure of cell yield.

primary T cells = test: Dose response of primary T cell viability and yield; assay type: cell-based, human; settings: 24 hours at 30° C. or 37° C.
Method: as §1

[6] = test system: human peripheral blood CD34+ cells; test: Methylcellulose colony forming assay of edited CD34+ cells; assay type: cell-based
Method: (§3) A potential caveat with using small molecules to enhance gene repair is the impact on hematopoietic stem and progenitor cell survival. The methylceulluose colony forming assay was used to determine the impact of aminacrine treatment on hematopoietic stem and progenitor cell survival in vitro. Human peripheral blood CD34+ cells were cultured in cytokine supplemented media, electroporated with mRNA encoding BCL11A-specific megaTAL and transduced with BCL11A-HDR AAV vector, as described in Example 4.
(§4) Cells were cultured in the presence or absence of aminacrine during the first 24 hours post-electroporation. Following this post-electroporation recovery step, cells were counted and plated into methylcellulose media.
After 14 days in methylcellulose culture, the erythroid burst-forming units (BFU) and hematopoietic colony forming units (CFU) were scored based on frequency and morphology. […] FIG. 6.

[7] = test system: BCL11A erythroid enhancer region in primary human CD34+ cells; test: HDR in bulk CD34+ cell population with BCL11A megaTAL and AAV donor template; assay type: cell-based; settings: aminacrine 1.0 μM for 24 hours
Method: Primary human peripheral blood-derived CD34+ cells were cultured in cytokine-supplemented media for 48 hours. Cells were washed and electroporated with an mRNA encoding a megaTAL specific for the human BCL11A erythroid enhancer region. Cells were then incubated with AAV vector with or without aminacrine at a concentration of 1.0 μM for 24 hours, washed and cultured in cytokine-supplemented media. HDR was analyzed at regular timepoints by flow cytometry to determine BFP fluorescence.

[8] = test system: BCL11A locus in primary human hematopoietic stem and progenitor cells; test: HDR in methylcellulose colonies derived from CD34+ cells, by flow cytometry; assay type: cell-based; settings: samples treated with both megaTAL and rAAV vector
Method: as §3, §4
To determine whether treatment with aminacrine could yield elevated HDR rates in methylcellulose colonies derived from primary human hematopoietic stem and progenitor cells, colonies were harvested and analyzed by flow cytometry. […] FIG. 7.

Structure (SMILES)	% CD3 negative [1]	efficiency of TCRα disruption (proportion of CD3-negative cells), in words [2]	Cell Yield (primary human T cells)	further results
Nc1c2ccccc2nc2ccccc12 [Aminacrine, 9-aminoacridine]	82.8%	Enhance MegaTAL-Mediated Gene Disruption; also recorded: substantially enhanced gene disruption	13621	HDR frequency at the BCL11A locus (% BFP+ cells), in words [3]: concentration-dependent increase in HDR frequency; % GFP+ (frequency of HDR events) ([4]; 10 μM aminacrine following megaTAL transfection, 18% without aminacrine): 36%; % GFP positive cells ([4]; Donor 783, Aminacrine 2 μM, AAV-GFP +): 25%; % GFP positive cells ([4]; Donor 783, Aminacrine 2 μM, AAV-GFP −): 0; % GFP positive cells ([4]; Donor 783, Aminacrine 10 μM, AAV-GFP +): 36%; % GFP positive cells ([4]; Donor 783, Aminacrine 10 μM, AAV-GFP −): 0; % GFP positive cells ([4]; Donor 855, Aminacrine 2 μM, AAV-GFP +): 41%; % GFP positive cells ([4]; Donor 855, Aminacrine 2 μM, AAV-GFP −): 0; % GFP positive cells ([4]; Donor 855, Aminacrine 10 μM, AAV-GFP +): 38%; % GFP positive cells ([4]; Donor 855, Aminacrine 10 μM, AAV-GFP −): 0; frequency of HDR events (% GFP+ cells), in words ([4]; T cells, aminacrine 2 μM and 10 μM overnight at 30° C.): concentration-dependent increase; Template capture via a non-homology driven NHEJ pathway, in words [5]: not enhanced; proportion of BFP+ cells with CCR5-specific megaTAL and BCL11A-targeting AAV template, in words [5]: did not significantly increase; proportion of BFP+ cells with CCR5-specific megaTAL and BCL11A-targeting AAV template, in words ([5]; listed as aminacrine): not at the non-target CCR5 locus; T cell viability and yield, in words (primary T cells): minimal impact on cell viability; lineage output of BFU and CFU colonies, in words ([6]; 14 days in methylcellulose culture, aminacrine during first 24 hours post-electroporation): comparable lineage output and showed no overt lineage skewing; hematopoietic stem and progenitor cell survival, in words ([6]; methylcellulose colony forming assay): does not Adversely Affect; HDR frequency at the BCL11A locus (% BFP+ cells) in bulk CD34+ cells, in words [7]: increased HDR frequency; HDR frequency at the BCL11A locus (% BFP+ cells) in bulk CD34+ cells, in words ([7]; listed as aminacrine): increases HDR; proportion of cells undergoing HDR in methylcellulose colonies, in words [8]: increased the proportion of cells undergoing HDR
C[C@@H]1C[C@@H]([C@H](O)CC2CC(=O)NC(=O)C2)C(=O)[C@@H](C)C1 [Cyclohexamide]	68.7%	–	4166	–
COc1cccc2c1C(=O)c1c(O)c3c(c(O)c1C2=O)C[C@@](O)(C(C)=O)C[C@@H]3O[C@H]1C[C@H](N)[C@H](O)[C@H](C)O1 [Daunorubicin]	73.3%	–	35	–
CCOc1ccc2nc3cc(N)ccc3c(N)c2c1 [Ethacridine Lactate]	70.4%	–	14179	–
COc1ccc2c(c1)[nH]c1c(C)nccc12 [Harmine]	75.1%	Enhance MegaTAL-Mediated Gene Disruption	9581	–
CC[n+]1c(-c2ccccc2)c2cc(N)ccc2c2ccc(N)cc21 [Homidium Bromide]	80.3%	Enhance MegaTAL-Mediated Gene Disruption	1023	–
CCN(CC)CCNc1ccc(CO)c2sc3ccccc3c(=O)c12 [Hycanthone]	74.1%	–	10012	–
OC[C@H]1O[C@@H](n2cnc3c(NCc4ccco4)ncnc32)[C@H](O)[C@@H]1O [Kinetin Riboside]	70.8%	–	1668	–
C[n+]1cc2c3c(ccc2c2ccc4cc5c(cc4c21)OCO5)OCO3 [Sanguinarine Sulfate]	71.1%	–	2346	–
CCN(CC)CCOc1ccc2c(c1)C(=O)c1cc(OCCN(CC)CC)ccc1-2 [Tilorone]	86.8%	Enhance MegaTAL-Mediated Gene Disruption	310	–
